Source: ChEMBL document CHEMBL1132781, “Structure-based design and synthesis of phosphinate isosteres of phosphotyrosine for incorporation in Grb2-SH2 domain inhibitors. Part 1” (Bioorg Med Chem Lett, 2000)

target: Growth factor receptor-bound protein 2 (Homo sapiens, UniProt P62993); experiment: Inhibition of Grb2-SH2 domain binding to phospho-EGF receptor intracellular C-terminal domain; type: cell-based

SMILES	IC50
CC(=O)N[C@@H](Cc1ccc(CP(=O)(O)C(O)c2ccccc2)cc1)C(=O)NC1(C(=O)N[C@@H]2CCCC[C@@H]2C(N)=O)CCCCC1 (stereo partly specified)	530 nM
CC(=O)N[C@@H](Cc1ccc(CP(=O)(O)CCO)cc1)C(=O)NC1(C(=O)N[C@@H]2CCCC[C@@H]2C(N)=O)CCCCC1	1600 nM
CC(=O)N[C@@H](Cc1ccc(CP(=O)(O)Cc2ccccc2)cc1)C(=O)NC1(C(=O)N[C@@H]2CCCC[C@@H]2C(N)=O)CCCCC1	1200 nM

Next, values leading:

IC50	SMILES
25500 nM	CC(=O)N[C@@H](Cc1ccc(CP(C)(=O)O)cc1)C(=O)NC1(C(=O)N[C@@H]2CCCC[C@@H]2C(N)=O)CCCCC1
7600 nM	CC(=O)N[C@@H](Cc1ccc(CP(=O)(O)CO)cc1)C(=O)NC1(C(=O)N[C@@H]2CCCC[C@@H]2C(N)=O)CCCCC1
700 nM	CC(=O)N[C@@H](Cc1ccc(CP(=O)(O)O)cc1)C(=O)NC1(C(=O)N[C@@H]2CCCC[C@@H]2C(N)=O)CCCCC1
